Test results published in patent US7354588B1, “Functional derivatives of ICAM-1 with altered ability to bind LFA-1 or HRV” (Dana Farber Cancer Institute, priority 1987, dated 2008).
*1 amine or outer side, *2 acyl side, *3 side chain or, on linkers, in order; H or OH if unused. Where a SMILES comes first, the peptide text is derived from it. Bridges are numbered along the chain shown (N, C = ends). Roman numbers before positions name the chains, in order. [ ]: non-standard residue; d: D form. Actinocin(9to1) = Cc1c2oc3c(C)ccc(C(=O)[*:1])c3nc-2c(C(=O)[*:2])c(N)c1=O; NMeV = CN[C@H](C(=O)O)C(C)C; Sar = CNCC(=O)O

Key:
Type in all cases: cell-based
[1] = tested on: ICAM-1 expression on human dermal fibroblasts; assay: ^125I goat anti-mouse IgG binding assay, anti-ICAM-1, dermal fibroblasts
Experimental: (§1) The kinetics of interleukin 1 and gamma interferon effects on ICAM-1 expression on dermal fibroblasts were determined using the ^125I goat anti-mouse IgG binding assay of Dustin, M. L. et al. (J. Immunol. 137:245-254 (1986); which reference is herein incorporated by reference). To perform this binding assay, human dermal fibroblasts were grown in a 96-well microtiter plate to a density of 2−8×10^4 cells/well (0.32 cm^2). The cells were washed twice with RPMI 1640 medium supplemented as described in Example 1. The cells were additionally washed once with Hanks Balanced Salt Solution (HBSS), 10 mM HEPES, 0.05% NaN3 and 10% heat-inactivated fetal bovine serum. Washing with this binding buffer was done at 4° C. To each well was added 50 μl of the above-described binding buffer and 50 μl of the appropriate hybridoma supernatant with X63 and W6/32 as the negative and positive controls, respectively. After incubation for 30 minutes at 4° C., with gentle agitation, the wells were washed twice with binding buffer, and the second antibody ^125I-goat anti-mouse IgG, was added at 50 nCi in 100 μl. The ^125I-goat anti-mouse antibody was prepared by using Iodogen (Pierce) according to the method of Fraker, P. J. et al. (Biochem. Biophys. Res. Commun. 80:849 (1978)). After 30 minutes at 4° C., the wells were washed twice with 200 μl of binding buffer and the cell layer was solubilized by adding 100 μl of 0.1 N NaOH. This and a 100 μl wash were counted in a Beckman 5500 gamma counter. The specific counts per minute bound was calculated as [cpm with monoclonal antibody]-[cpm with X63]. All steps, including induction with specific reagents, were carried out in quadruplicate.

[2] = tested on: HLA-A,B,C expression on human dermal fibroblasts; assay: ^125I goat anti-mouse IgG binding assay, anti-HLA-A,B,C, dermal fibroblasts
Experimental: as §1

[3] = tested on: ICAM-1 expression on human umbilical vein endothelial cells (HUVEC); assay: Radioimmune assay of ICAM-1 expression with ^125I RR1/1, HUVEC; conditions: for ^125I Specifically bound (CPM), HUVEC / fold of control ICAM-1 expression, HUVEC: 16 hr; for ^125I Specifically bound (CPM), HUVEC: rIL-1 beta 100 ng/ml, rIL-1 alpha 50 ng/ml, rTNF alpha 50 ng/ml, LPS 10 μg/ml, rIFN gamma 10 ng/ml, polymyxin B 10 μg/ml, control 603 ± 11; for fold of control ICAM-1 expression, HUVEC: same concentrations as CPM; for increase of ICAM-1 expression on HUVEC: IL-1 beta 100 ng/ml, rTNF 50 ng/ml, Interferon-gamma 10,000 U/ml
Experimental: (§2) In order to measure ICAM-1 expression, a radioimmune assay was developed. In this assay, purified RR1/1 was iodinated using iodogen to a specific activity of 10 μCi/μg. Endothelial cells were grown in 96 well plates and treated as described for each experiment. The plates were cooled at 4° C. by placing in a cold room for 0.5-1 hr, not immediately on ice. The monolayers were washed 3× with cold complete media and then incubated 30 m at 4° C. with ^125I RR1/1. The monolayers were then washed 3× with complete media. The bound 125, was released using 0.1 N NaOH and counted. The specific activity of the ^125I RR1/1 was adjusted using unlabeled RR1/1 to obtain a linear signal over the range of antigen densities encountered in this study. Non-specific binding was determined in the presence of a thousand fold excess of unlabeled RR1/1 and was subtracted from total binding to yield the specific binding.
(§3) Upregulation of ICAM-1 expression on HVEC and HSVEC-HUVEC or HSVEC were seeded into 96 well plates at 1:3 from a confluent monolayer and allowed to grow to confluence. Cells were then treated with the indicated materials or media for 16 hr and the RIA done as in methods. All points were done in quadruplicate.

[4] = tested on: ICAM-1 expression on human saphenous vein endothelial cells (HSVEC); assay: Radioimmune assay of ICAM-1 expression with ^125I RR1/1, HSVEC; conditions: for ^125I Specifically bound (CPM), HSVEC / fold of control ICAM-1 expression, HSVEC: 16 hr; for ^125I Specifically bound (CPM), HSVEC: rIL-1 beta 100 ng/ml, rTNF alpha 50 ng/ml, LPS 10 μg/ml, rIFN gamma 10 ng/ml, control 1132 ± 31; for fold of control ICAM-1 expression, HSVEC: same concentrations as CPM; for increase of ICAM-1 expression on HSVEC: IL-1 beta 100 ng/ml, rTNF 50 ng/ml, Interferon-gamma 10,000 U/ml
Experimental: as §2, §3

[5] = cycloheximide 20 μg/ml, actinomycin D 10 μM
[6] = cells treated with IFN-γ (10 U/ml) (18 hr), alone or plus the inhibitor named
[7] = cells treated with IFN-γ (10 U/ml) (18 hr), alone or plus the inhibitor named (cycloheximide 20 μg/ml, actinomycin D 10 μM)

Molecule | effect on interleukin 1 and gamma interferon induced ICAM-1 expression on fibroblasts [1, 5] | ^125I Goat Anti-Mouse IgG Specifically Bound (cpm), anti-HLA-A,B,C [2, 6] [cpm] | ^125I Goat Anti-Mouse IgG Specifically Bound (cpm), anti-HLA-A,B,C ([2]; cells treated with IL 1 (10 U/ml) (4 hr), alone or plus the inhibitor named) [cpm] | ^125I Goat Anti-Mouse IgG Specifically Bound (cpm), anti-HLA-A,B,C ([2]; no cytokine, Control (4 hr) 11928 ± 600, cycloheximide 20 μg/ml, actinomycin D 10 μM, tunicamycin 2 μg/ml, mean ± SD) [cpm] | ^125I Goat Anti-Mouse IgG Specifically Bound (cpm), anti-ICAM-1 [1, 7] [cpm] | ^125I Goat Anti-Mouse IgG Specifically Bound (cpm), anti-ICAM-1 ([1]; cells treated with IL 1 (10 U/ml) (4 hr), alone or plus the inhibitor named (cycloheximide 20 μg/ml, actinomycin D 10 μM, tunicamycin 2 μg/ml)) [cpm] | ^125I Goat Anti-Mouse IgG Specifically Bound (cpm), anti-ICAM-1 ([1]; no cytokine, Control (4 hr) 1524 ± 140, cycloheximide 20 μg/ml, actinomycin D 10 μM, tunicamycin 2 μg/ml, mean ± SD) [cpm] | ^125I Specifically bound (CPM), HUVEC [3] [CPM] | fold of control ICAM-1 expression, HUVEC [3] [x] | increase of ICAM-1 expression on HUVEC [3] [fold] | half-life for ICAM-1 induction ([1]; human dermal fibroblasts, 10 U/ml) [h] | ^125I Specifically bound (CPM), HSVEC [4] [CPM] | fold of control ICAM-1 expression, HSVEC [4] [x] | increase of ICAM-1 expression on HSVEC [4] [fold] | half-maximal increase of ICAM-1 expression ([3]; endothelial cells (HUVEC and HSVEC)) [ng/mL]
Cc1c2oc3c(C)ccc(C(=O)N[C@@H]4C(=O)N[C@H](C(C)C)C(=O)N5CCC[C@H]5C(=O)N(C)CC(=O)N(C)[C@@H](C(C)C)C(=O)O[C@@H]4C)c3nc-2c(C(=O)N[C@@H]2C(=O)N[C@H](C(C)C)C(=O)N3CCC[C@H]3C(=O)N(C)CC(=O)N(C)[C@@H](C(C)C)C(=O)O[C@@H]2C)c(N)c1=O [actinomycin D] (I: T[dV]P[Sar][NMeV] / II: T[dV]P[Sar][NMeV]; ester I:1-I:C, II:1-II:C; linker I:N-II:N via Actinocin(9to1)) | abolish the effects |  |  |  |  |  |  |  |  |  |  |  |  |  | 
cycloheximide | abolish the effects | 10675 ± 800 | 12676 ± 446 | 10678 ± 471 | 1461 ± 59 | 1619 ± 381 | 1513 ± 210 |  |  |  |  |  |  |  | 
rIFN gamma: recombinant gamma interferon |  | 23675 ± 500 |  |  | 4659 ± 109 |  |  | 3120 ± 308 | 5.2 | 5.2 | 3.75 | 4002 ± 664 | 3.5 | 3.5 | 
rIL-1 beta: recombinant IL-1 beta |  |  |  |  |  |  |  | 5680 ± 633 | 9 | 9 |  | 8320 ± 766 | 7.3 | 7.3 | 15
